Patent publication US20180312493A1, “Antibiotic Compounds, Pharmaceutical Formulations Thereof And Methods And Uses Therefor” (Simon Fraser University, priority 2015, published 2018)
pIC50: −log10 of the molar value. Values after ≈ are worked out from the molar mass of the structure shown. Counter-ions that a name gives are not always drawn. Like-named read-outs stand apart in the source and are kept apart here.

Key:
[1] = tested on: VRE#2 (2010A); test: In vitro susceptibility, broth microdilution (MIC); format: cell-based, vancomycin resistant Enterococci; conditions: read-out: Antimicrobial activity (MIC) VRE#2
Excerpt: (§1) Epidemic methicillin resistant S. aureus (MRSA) strain sequenced at the Sanger Centre (MRSA252, NRS71) was obtained from NARSA (Network on Antimicrobial Resistance in S. aureus). Methicillin sensitive S. aureus (ATCC 29213 and 25923), methicillin resistant S. aureus (ATCC BAA-1762), and Salmonella typhimurium (ATCC BAA-185) were obtained from ATCC, The Global Bioresource Center. Acinetobacter baumannii (ATCC 19606 and ATCC 17978), Klebsiella pneumonia (C238), vancomycin resistant Enterococci #2 (2010A) (VRE#2), MRSA (USA400, MW2) and Pseudomonas aeruginosa (PA0-1) were obtained from the laboratory of Dr B. B. Finlay at the University of British Columbia (Vancouver, Canada).
(§2) The antimicrobial activities of PK inhibitor candidates were determined using the 96-well microtiter standard 2-fold serial broth microdilution method as described by CLSI (formerly NCCLS) with the various gram-positive and gram-negative bacteria species mentioned above. Bacteria from a single colony were grown, overnight in either BHI Broth (VRE), mueller hinton broth (S. aureus 29213; MRSA USA400, A. baumannii 19606, MRSA BAA-1762) or L-broth (P. aeruginosa, S. typhimurium, K. pneumonia and A. baumannii 17978). Each compound was prepared in DMSO with 2-fold serial dilutions to give a final concentration of, 0.031 to 64 μg/ml. 10 μl of the compound solution was then added, in duplicate, to either, 190 μl of cation adjusted mueller hinton broth (CAMHB) or 190 μl CAMHB containing ˜2.5×10^5 CFU/ml of bacteria (final compound concentration 0.031 to 64 μg/ml). Culture plates were incubated for 18-24 h at 37° C., and optical density at 600 nm (OD600) was measured using a Benchmark Plus™ microplate spectrophotometer (Bio-Rad™). The absorbance control values for the series containing CAMHB and inhibitor were subtracted as background from the corresponding infected wells. Minimal inhibitory concentration (MIC) was defined as the lowest concentration of test compound leading to complete inhibition of cell growth in relation to compound-free control wells as determined by optical density. Vancomycin, methicillin and ciprofloxicin were used as reference compounds. All assays were run in triplicate or duplicate. Experiments were replicated at least twice to verify reproducibility using the above conditions.

[2] = tested on: MRSA (ATCC BAA-1762); test: In vitro susceptibility, broth microdilution (MIC); format: cell-based, methicillin resistant S. aureus; conditions: Staphylococcus aureus, read-out: Antimicrobial activity (MIC) MRSA ATCC BAA1762
Excerpt: as §1, §2

[3] = tested on: A. baumannii (ATCC 19606); test: In vitro susceptibility, broth microdilution (MIC); format: cell-based; conditions: Acinetobacter baumannii
Excerpt: as §1, §2

[4] = target: T1, MRSA Pyk (Staphylococcus aureus, UniProt Q6GG09); test: MRSA pyruvate kinase (PK) activity, continuous LDH-coupled assay; format: biochemical, methicillin resistant S. aureus (MRSA252)
T1 construct: made in house; host or cells: E. coli BL-21 (DE3)
Method in brief: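 Activity monitored continuously as absorbance change at 340 nm from NADH oxidation via coupled lactate dehydrogenase, reactions started with 15 nM recombinant His-tagged PK (MRSA or human isoform) and run at 30° C for up to 5 min. Ki derived by varying inhibitor (0-400 nM) and PEP (2-20 mM) at 2 mM ADP; IC50 by four-parameter fitting.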

[5] = tested on: S. aureus (ATCC29213); test: In vitro susceptibility, broth microdilution (MIC); format: cell-based; conditions: Staphylococcus aureus
Method in brief: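 CLSI 2-fold serial broth microdilution; K. pneumoniae C238 grown in L-broth, S. aureus ATCC 29213 in Mueller Hinton broth, plates incubated 18–24 h at 37 °C. MIC taken as lowest concentration giving complete growth inhibition by OD600 versus compound-free wells, background-subtracted.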

[6] = ATCC19606, A. baumannii ATCC 19606 (values without asterisk), read-out: Antimicrobial activity (MIC) A. baumannii
[7] = S. aureus ATCC29213, 18-24 h, 37 C, read-out: Antimicrobial activity (MIC) S. aureus ATCC29213

T1 sequence (Q6GG09 whole entry): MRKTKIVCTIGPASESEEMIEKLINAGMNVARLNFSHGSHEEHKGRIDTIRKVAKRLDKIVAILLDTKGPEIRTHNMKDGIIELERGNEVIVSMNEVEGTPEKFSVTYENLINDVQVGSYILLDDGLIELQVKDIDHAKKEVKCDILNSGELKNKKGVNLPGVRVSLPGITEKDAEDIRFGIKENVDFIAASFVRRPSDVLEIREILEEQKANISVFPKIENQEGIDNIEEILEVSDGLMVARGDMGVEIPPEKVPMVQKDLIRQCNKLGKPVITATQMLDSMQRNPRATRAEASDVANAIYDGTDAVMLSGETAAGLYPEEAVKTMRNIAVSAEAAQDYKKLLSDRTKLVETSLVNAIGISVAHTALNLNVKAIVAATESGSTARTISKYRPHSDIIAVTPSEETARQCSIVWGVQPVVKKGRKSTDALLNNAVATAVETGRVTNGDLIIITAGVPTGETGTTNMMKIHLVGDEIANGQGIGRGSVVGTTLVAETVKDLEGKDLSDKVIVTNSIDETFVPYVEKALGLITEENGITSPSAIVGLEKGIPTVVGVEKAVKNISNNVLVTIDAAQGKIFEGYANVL

Compound: C[N+](C)(CCO/N=C(/c1c(-c2cc3cc(Cl)ccc3[nH]2)[nH]c2cc(Br)ccc12)C(F)(F)F)CC(=O)[O-] [Compound 223, 2-((2-(((1-(6-Bromo-5′-chloro-1H,1′H-[2,2′-biindol]-3-yl)-2,2,2-trifluoroethylidene)amino)oxy)ethyl)dimethylammonio)acetate]
- MIC ([1]; VRE#2 (2010A)): 8 µg/mL (≈ 13.7 µM)
- MIC ([2]; MRSA ATCC BAA-1762): 8 µg/mL (≈ 13.7 µM)
- MIC [3, 6]: > 64 µg/mL
- pIC50 [4]: 6.00 to 7.00
- MIC [5, 7]: 16 µg/mL (≈ 27.3 µM)

Compound: COC(=O)C[N+](C)(C)CCON=C(c1c(-c2cc3cc(Cl)ccc3[nH]2)[nH]c2cc(Br)ccc12)C(F)(F)F (racemic) [Compound 222, N-(2-(((1-(6-Bromo-5′-chloro-1H,1′H-[2,2′-biindol]-3-yl)-2,2,2-trifluoroethylidene)amino)oxy)ethyl)-2-methoxy-N,N-dimethyl-2-oxoethan-1-aminium Bromide]
- MIC ([1]; VRE#2 (2010A)): 4 µg/mL
- MIC ([2]; MRSA ATCC BAA-1762): 2 µg/mL
- MIC [3, 6]: 32 µg/mL
- pIC50 [4]: > 7.00
- MIC [5, 7]: 2 µg/mL

Compound: C[N+](C)(C)CCCNC(=O)COc1cc2[nH]c(-c3cc4ccc(Br)cc4[nH]3)cc2cc1Cl [Compound 191, 3-(2-((6′-Bromo-5-chloro-1H,1′H-[2,2′-biindol]-6-yl)oxy)acetamido)-N,N,N-trimethylpropan-1-aminium Formate]
- MIC [1]: 16 µg/mL
- MIC [2]: 16 µg/mL
- MIC ([3]; ATCC19606, read-out: Antimicrobial activity (MIC) A. baumannii): > 64 µg/mL
- pIC50 [4]: > 7.00
- MIC ([5]; ATCC29213, read-out: Antimicrobial activity (MIC) S. aureus ATCC29213): 16 µg/mL

Compound: CNCCNC(=O)c1c(-c2cc3cc(Cl)ccc3[nH]2)[nH]c2cc(Br)ccc12 [Compound 136, 6-Bromo-5′-chloro-N-(2-(methylamino)ethyl)-1H,1′H-[2,2′-biindole]-3-carboxamide]
- MIC ([1]; VRE#2 (2010A)): 8 µg/mL (≈ 17.9 µM)
- MIC ([2]; MRSA ATCC BAA-1762): 8 µg/mL (≈ 17.9 µM)
- MIC [3, 6]: 16 µg/mL (≈ 35.9 µM)
- pIC50 [4]: > 7.00
- MIC [5, 7]: 8 µg/mL (≈ 17.9 µM)

Compound: CC(C)(C)NCCNC(=O)c1c(-c2cc3cc(Cl)ccc3[nH]2)[nH]c2cc(Br)ccc12 [Compound 138, 6-Bromo-N-(2-(tert-butylamino)ethyl)-5′-chloro-1H,1′H-[2,2′-biindole]-3-carboxamide]
- MIC ([1]; VRE#2 (2010A)): 4 µg/mL (≈ 8.2 µM)
- MIC ([2]; MRSA ATCC BAA-1762): 8 µg/mL (≈ 16.4 µM)
- MIC [3, 6]: 64 µg/mL (≈ 131 µM)
- pIC50 [4]: > 7.00
- MIC [5, 7]: 4 µg/mL (≈ 8.2 µM)

Compound: CN(C)CCON=C(c1c(-c2cc3cc(Cl)ccc3[nH]2)[nH]c2cc(Br)ccc12)C(F)(F)F (racemic) [Compound 220, 1-(6-Bromo-5′-chloro-1H,1′H-[2,2′-biindol]-3-yl)-2,2,2-trifluoroethan-1-one O-(2-(dimethylamino)ethyl)oxime]
- MIC ([1]; VRE#2 (2010A)): 2 µg/mL (≈ 3.79 µM)
- MIC ([2]; MRSA ATCC BAA-1762): 2 µg/mL (≈ 3.79 µM)
- MIC [3, 6]: > 64 µg/mL
- pIC50 [4]: > 7.00
- MIC [5, 7]: 2 µg/mL (≈ 3.79 µM)

Compound: CN(C)CC(=O)OCCCNC(=O)c1c(-c2cc3cc(Cl)ccc3[nH]2)[nH]c2cc(Br)ccc12 [Compound 184, 3-(6-Bromo-5′-chloro-1H, 1′H-[2,2′-biindole]-3-carboxamido)propyl Dimethylglycinate]
- MIC ([1]; VRE#2 (2010A)): > 64 µg/mL
- MIC ([2]; MRSA ATCC BAA-1762): 16 µg/mL (≈ 30.1 µM)
- MIC [3, 6]: > 64 µg/mL
- pIC50 [4]: > 7.00
- MIC [5, 7]: > 64 µg/mL

Compound: CN1CCCN(CCCCNC(=O)c2c(-c3cc4cc(Cl)ccc4[nH]3)[nH]c3cc(Br)ccc23)CC1 [Compound 117, 6-Bromo-5′-chloro-N-(4-(4-methyl-1,4-diazepan-1-yl)butyl)-1H,1′H-[2,2′-biindole]-3-carboxamide]
- MIC ([1]; VRE#2 (2010A)): 8 µg/mL (≈ 14.4 µM)
- MIC ([2]; MRSA ATCC BAA-1762): 8 µg/mL (≈ 14.4 µM)
- MIC [3, 6]: 32 µg/mL (≈ 57.5 µM)
- pIC50 [4]: > 7.00
- MIC [5, 7]: 8 µg/mL (≈ 14.4 µM)

Compound: CN(C)CC(=O)OCCOc1cc2[nH]c(-c3cc4ccc(Br)cc4[nH]3)cc2cc1Cl [Compound 197, 2-((6′-Bromo-5-chloro-1H,1′H-[2,2′-biindol]-6-yl)oxy)ethyl Dimethylglycinate]
- MIC ([1]; VRE#2 (2010A)): 8 µg/mL (≈ 16.3 µM)
- MIC ([2]; MRSA ATCC BAA-1762): 8 µg/mL (≈ 16.3 µM)
- MIC [3, 6]: > 64 µg/mL
- pIC50 [4]: > 7.00
- MIC [5, 7]: 8 µg/mL (≈ 16.3 µM)

Compound: COCCN1CCC(NCCNC(=O)c2c(-c3cc4cc(Cl)ccc4[nH]3)[nH]c3cc(Br)ccc23)CC1 [Compound 124, 6-Bromo-5′-chloro-N-(2-((1-(2-methoxyethyl)piperidin-4-yl)amino)ethyl)-1H,1′H-[2,2′-biindole]-3-carboxamide]
- MIC ([1]; VRE#2 (2010A)): 8 µg/mL (≈ 14 µM)
- MIC ([2]; MRSA ATCC BAA-1762): 8 µg/mL (≈ 14 µM)
- MIC [3, 6]: 16 µg/mL (≈ 27.9 µM)
- pIC50 [4]: > 7.00
- MIC [5, 7]: 8 µg/mL (≈ 14 µM)

Compound: COc1cc2[nH]c(-c3[nH]c4cc(Br)ccc4c3C(=O)C(F)(F)F)cc2cc1Cl [Compound 200, 1-(6-Bromo-5′-chloro-6′-methoxy-1H, 1′H-[2,2′-biindol]-3-yl)-2,2,2-trifluoroethan-1-one]
- MIC ([1]; VRE#2 (2010A)): 1 µg/mL (≈ 2.12 µM)
- MIC ([2]; MRSA ATCC BAA-1762): 1 µg/mL (≈ 2.12 µM)
- MIC [3, 6]: > 64 µg/mL
- pIC50 [4]: > 7.00
- MIC [5, 7]: 4 µg/mL (≈ 8.48 µM)

Compound: C[n+]1ccccc1CCNC(=O)c1c(-c2cc3cc(Cl)ccc3[nH]2)[nH]c2cc(Br)ccc12 [Compound 150]
- MIC ([1]; VRE#2 (2010A)): 32 µg/mL
- MIC ([2]; MRSA ATCC BAA-1762): 16 µg/mL
- MIC [3, 6]: > 64 µg/mL
- pIC50 [4]: > 7.00
- MIC [5, 7]: 16 µg/mL

Compound: CN(C)CCNCCNC(=O)c1c(-c2cc3cc(Cl)ccc3[nH]2)[nH]c2cc(Br)ccc12 [Compound 126, 6-Bromo-5′-chloro-N-(2-((2-(dimethylamino)ethyl)amino)ethyl)-1H,1′H-[2,2′-biindole]-3-carboxamide]
- MIC ([1]; VRE#2 (2010A)): 8 µg/mL (≈ 15.9 µM)
- MIC ([2]; MRSA ATCC BAA-1762): 16 µg/mL (≈ 31.8 µM)
- MIC [3, 6]: 32 µg/mL (≈ 63.6 µM)
- pIC50 [4]: > 7.00
- MIC [5, 7]: 16 µg/mL (≈ 31.8 µM)

Compound: CCNCCNC(=O)c1c(-c2cc3cc(Cl)ccc3[nH]2)[nH]c2cc(Br)ccc12 [Compound 137, 6-Bromo-5′-chloro-N-(2-(ethylamino)ethyl)-1H,1′H-[2,2′-biindole]-3-carboxamide]
- MIC ([1]; VRE#2 (2010A)): 8 µg/mL (≈ 17.4 µM)
- MIC ([2]; MRSA ATCC BAA-1762): 8 µg/mL (≈ 17.4 µM)
- MIC [3, 6]: 32 µg/mL (≈ 69.6 µM)
- pIC50 [4]: > 7.00
- MIC [5, 7]: 8 µg/mL (≈ 17.4 µM)

Compound: CN1CCCN(CCCNC(=O)c2c(-c3cc4cc(Cl)ccc4[nH]3)[nH]c3cc(Br)ccc23)CC1 [Compound 118, 6-Bromo-5′-chloro-N-(3-(4-methyl-1,4-diazepan-1-yl)propyl)-1H,1′H-[2,2′-biindole]-3-carboxamide]
- MIC ([1]; VRE#2 (2010A)): 8 µg/mL (≈ 14.7 µM)
- MIC ([2]; MRSA ATCC BAA-1762): 16 µg/mL (≈ 29.5 µM)
- MIC [3, 6]: 32 µg/mL (≈ 58.9 µM)
- pIC50 [4]: > 7.00
- MIC [5, 7]: 16 µg/mL (≈ 29.5 µM)

Compound: OCCOc1cc2[nH]c(-c3cc4ccc(Br)cc4[nH]3)cc2cc1Cl [Compound 196, 2-((6′-Bromo-5-chloro-1H,1′H-[2,2′-biindol]-6-yl)oxy)ethan-1-ol]
- MIC ([1]; VRE#2 (2010A)): > 64 µg/mL
- MIC ([2]; MRSA ATCC BAA-1762): 8 µg/mL (≈ 19.7 µM)
- MIC [3, 6]: > 64 µg/mL
- pIC50 [4]: > 7.00
- MIC [5, 7]: 16 µg/mL (≈ 39.4 µM)
